The test can be described thus: Stopped-flow kinetic analysis of superoxide dismutation. Further details: kcat pH 8.1 / kcat pH 7.4: unit not given here. Type of test: biochemical. An excerpt:
Stopped-flow kinetic analysis is an accurate and direct method for quantitatively monitoring the decay rates of superoxide in water.
For the attainment of consistent and accurate measurements all reagents were biologically clean and metal-free. To achieve this, all buffers (Calbiochem) were biological grade, metal-free buffers and were handled with utensils which had been washed first with 0.1N HCl, followed by purified water, followed by a rinse in a 10^−4 M EDTA bath at pH 8, followed by a rinse with purified water and dried at 65° C. for several hours. Dry DMSO solutions of potassium superoxide (Aldrich) were prepared under a dry, inert atmosphere of argon in a Vacuum Atmospheres dry glovebox using dried glassware. The DMSO solutions were prepared immediately before every stopped-flow experiment. A mortar and pestle were used to grind the yellow solid potassium superoxide (~100 mg). The powder was then ground with a few drops of DMSO and the slurry transferred to a flask containing an additional 25 ml of DMSO. The resultant slurry was stirred for ½ h and then filtered. This procedure gave reproducibly ~2 mM concentrations of superoxide in DMSO. These solutions were transferred to a glovebag under nitrogen in sealed vials prior to loading the syringe under nitrogen. It should be noted that the DMSO/superoxide solutions are extremely sensitive to water, heat, air, and extraneous metals. A fresh, pure solution has a very slight yellowish tint.
Water for buffer solutions was delivered from an in-house deionized water system to a Barnstead Nanopure Ultrapure Series 550 water system and then double distilled, first from alkaline potassium permanganate and then from a dilute EDTA solution. For example, a solution containing 1.0 g of potassium permanganate, 2 liters of water and additional sodium hydroxide necessary to bring the pH to 9.0 were added to a 2-liter flask fitted with a solvent distillation head. This distillation will oxidize any trace of organic compounds in the water. The final distillation was carried out under nitrogen in a 2.5-liter flask containing 1500 ml of water from the first still and 1.0×10^−6 M EDTA. This step will remove remaining trace metals from the ultrapure water. To prevent EDTA mist from volatilizing over the reflux arm to the still head, the 40-cm vertical arm was packed with glass beads and wrapped with insulation. This system produces deoxygenated water that can be measured to have a conductivity of less than 2.0 nanomhos/cm^2.
The stopped-flow spectrometer system was designed and manufactured by Kinetic Instruments Inc. (Ann Arbor, Mich.) and was interfaced to a MAC IICX personal computer. The software for the stopped-flow analysis was provided by Kinetics Instrument Inc. and was written in QuickBasic with MacAdios drivers. Typical injector volumes (0.10 ml of buffer and 0.006 ml of DMSO) were calibrated so that a large excess of water over the DMSO solution were mixed together. The actual ratio was approximately 19/1 so that the initial concentration of superoxide in the aqueous solution was in the range 60-120 μM. […]

Regarding `[Cl][Mn]1234([Cl])[N]5CC[N]1CC[N]2CC[N]3CC[N]4CC5` [Compound 1], the “kcat pH 7.4” value amounted to 4.13 and the “kcat pH 8.1” value was determined as 2.24.

For the molecule `[Cl][Mn]1234([Cl])[N]5CC[N]1CC[N]2CC(Cc1ccccc1)[N]3CC[N]4CC5` (stereo not shown) [Compound 2], the “kcat pH 7.4” value is 7.21 and the “kcat pH 8.1” value is listed as 2.57.

Consider `C#CCC1C[N]2CC[N]3CC[N]4CC[N]5CC[N]1[Mn]4352([Cl])[Cl]` (stereo not shown) [Compound 4], for which the “kcat pH 8.1” value was found to be 1.75.

Turning to `C[C@@H]1C[N]2[C@@H](C)C[N]3[C@@H](C)C[N]4[C@H](C)C[N]5[C@@H](C)C[N]1[Mn]4523([Cl])[Cl]` [Compound 5], the “kcat pH 7.4” value came to 3.82 and the “kcat pH 8.1” value was 3.90.

For the molecule `Oc1ccccc1CC1C[N]2CC[N]3CC[N]4CC[N]5CC[N]1[Mn]4352([Cl])[Cl]` (stereo not shown) [Compound 6], the “kcat pH 7.4” value stood at 6.99 and the “kcat pH 8.1” value is 3.83.

As for `[Cl][Mn]1234([Cl])[N]5CC[N]1CC[N]2[C@@H](Cc1cnc[nH]1)C[N]3[C@H](Cc1cnc[nH]1)C[N]4CC5` [Compound 7], the “kcat pH 7.4” value was found to be 2.00 and the “kcat pH 8.1” value is 1.58.

Turning to `CNCCCC[C@@H]1C[N]2CC[N]3CC[N]4CC[N]5[C@@H](CCCCNC)C[N]1[Mn]3425([Cl])[Cl]` [Compound 8], the “kcat pH 7.4” value is 5.95 and the “kcat pH 8.1” value turned out to be 5.90.

On to `FC(F)(F)CC1C[N]2CC[N]3CC[N]4CC[N]5CC[N]1[Mn]4352([Cl])[Cl]` (stereo not shown) [Compound 9], for which the “kcat pH 7.4” value is recorded as 2.77 and the “kcat pH 8.1” value came to 1.68.

Turning to `OC[C@@H]1C[N]2[C@@H](CO)C[N]3[C@@H](CO)C[N]4[C@H](CO)C[N]5[C@@H](CO)C[N]1[Mn]4523([Cl])[Cl]` [Compound 10], the “kcat pH 7.4” value is on record as 2.68 and the “kcat pH 8.1” value is listed as 2.68.

As to `NCCC[C@H]1C[N]2[C@@H]3CCCC[C@H]3[N]3CC[N]4CC[N]5CC[N]1[Mn]5432([Cl])[Cl]` [Compound 11], the “kcat pH 7.4” value is recorded as 4.79 and the “kcat pH 8.1” value is reported as 2.85.

Take `[Cl-].[Cl-].[NH3+]CCCC[C@@H]1C[N]2[C@@H](CCCC[NH3+])C[N]3[C@@H]4CCCC[C@H]4[N]4CC[N]5CC[N]1[Mn]5243([Cl])[Cl]` [Compound 12]: the “kcat pH 7.4” value stood at 10.20 and the “kcat pH 8.1” value was 5.39.

As for `C=CCC1C[N]2CC[N]3CC[N]4CC[N]5CC[N]1[Mn]4352([Cl])[Cl]` (stereo not shown) [Compound 13], the “kcat pH 8.1” value is 1.63.

On to `NCCC[C@H]1C[N]2[C@H]3CCCC[C@H]3[N]3CC[N]4[C@H]5CCCC[C@H]5[N]5CC[N]1[Mn]5342([Cl])[Cl]` [Compound 14], for which the “kcat pH 7.4” value is 7.58 and the “kcat pH 8.1” value came out at 3.84.

`C[C@H](CCCNCCC[C@H]1C[N]2[C@@H]3CCCC[C@H]3[N]3CC[N]4CC[N]5CC[N]1[Mn]5432([Cl])[Cl])[C@H]1CCC2[C@@H]3CC[C@@H]4C[C@H](O)CC[C@]4(C)C3CC[C@@]21C` (stereo partly shown) [Compound 15]: the “kcat pH 7.4” value amounted to 2.41 and the “kcat pH 8.1” value amounted to 0.77.

As for `NCC[C@H]1C[N]2[C@@H](CCN)C[N]3[C@@H]4CCCC[C@H]4[N]4CC[N]5CC[N]1[Mn]5243([Cl])[Cl]` [Compound 16], the “kcat pH 7.4” value was found to be 2.48 and the “kcat pH 8.1” value is recorded as 1.97.

For `[Cl][Mn]1234([Cl])[N]5CC[N]1C1CCCCC1[N]2CC[N]3C1CCCCC1[N]4CC5` (stereo not shown) [Compound 17], the “kcat pH 7.4” value was determined as 12.60 and the “kcat pH 8.1” value was found to be 4.09.

In the case of `C[C@@H]1C[N]2[C@H]3CCCC[C@H]3[N]3CC[N]4C5CCCCC5[N]5CC[N]1[Mn]5432([Cl])[Cl]` (stereo partly shown) [Compound 18], the “kcat pH 7.4” value was 15.00 and the “kcat pH 8.1” value is given as 4.00.

Take `C[C@@H]1C[N]2[C@@H](C)C[N]3[C@@H]4CCCC[C@H]4[N]4C[C@H](C)[N]5CC[N]1[Mn]4352([Cl])[Cl]` [Compound 19]: the “kcat pH 7.4” value came out at 8.48 and the “kcat pH 8.1” value is 4.08.

With `[Cl-].[Cl][Fe]1234([Cl])[N]5CC[N]1C1CCCCC1[N]2CC[N]3C1CCCCC1[N]4CC5` (stereo not shown) [Compound 20], the “kcat pH 7.4” value is 3.29 and the “kcat pH 8.1” value turned out to be 0.93.

As for `CC(C)(C)SC[C@H]1C[N]2[C@@H]3CCCC[C@H]3[N]3C[C@H](CSC(C)(C)C)[N]4CC[N]5CC[N]1[Mn]5423([Cl])[Cl]` [Compound 21], the “kcat pH 7.4” value is 2.93 and the “kcat pH 8.1” value was 1.29.

As for `N#C[S][Mn]1234([S]C#N)[N]5CC[N]1C1CCCCC1[N]2CC[N]3C1CCCC[C@H]1[N]4CC5` (stereo partly shown) [Compound 22], the “kcat pH 7.4” value was found to be 11.40 and the “kcat pH 8.1” value worked out at 5.03.

As for `OC[C@@H]1C[N]2CC[N]3[C@@H](CO)C[N]4[C@H](CO)C[N]5[C@@H](CO)C[N]1[Mn]2345([Cl])[Cl]` [Compound 23], the “kcat pH 7.4” value is listed as 6.61 and the “kcat pH 8.1” value amounted to 3.47.

Take `C[C@@H]1C[N]2[C@@H](C)C[N]3CC[N]4C[C@H](C)[N]5[C@@H](COc6ccco6)C[N]1[Mn]3425([Cl])[Cl]` [Compound 24]: the “kcat pH 7.4” value amounted to 2.55 and the “kcat pH 8.1” value is reported as 2.55.

For `COC(=O)C1=C(C(=O)OC)C2OC1C=C2COC[C@H]1C[N]2[C@H](C)C[N]3[C@@H](C)C[N]4CC[N]5[C@H](C)C[N]1[Mn]4523([Cl])[Cl]` (stereo partly shown) [Compound 25], the “kcat pH 7.4” value was determined as 4.04 and the “kcat pH 8.1” value was 2.34.

Consider `OC[C@@H]1C[N]2[C@@H]3CCCC[C@H]3[N]3CC[N]4C5CCCCC5[N]5CC[N]1[Mn]5432([Cl])[Cl]` (stereo partly shown) [Compound 26], for which the “kcat pH 7.4” value amounted to 10.12 and the “kcat pH 8.1” value was found to be 3.47.

In the case of `C[C@H]1C[N]2[C@@H](CCCO)C[N]3[C@@H]4CCCC[C@H]4[N]4C[C@H](CCCO)[N]5CC[N]1[Mn]5243([Cl])[Cl]` [Compound 27], the “kcat pH 7.4” value is 4.83 and the “kcat pH 8.1” value stood at 2.50.

For `C[C@@H]1C[N]2[C@@H](CCCN)C[N]3[C@@H]4CCCC[C@H]4[N]4CC[N]5[C@@H](C)C[N]1[Mn]2435([Cl])[Cl]` [Compound 31], the “kcat pH 7.4” value is 2.97 and the “kcat pH 8.1” value is listed as 2.91.

In the case of `C[C@@H]1C[N]2[C@@H](CCCNC(=O)CCC(=O)O)C[N]3[C@@H]4CCCC[C@H]4[N]4CC[N]5[C@@H](C)C[N]1[Mn]2435([Cl])[Cl]` [Compound 32], the “kcat pH 7.4” value turned out to be 1.74 and the “kcat pH 8.1” value was 1.43.

`CC(=O)OC[C@@H]1C[N]2CC[N]3[C@@H](COC(C)=O)C[N]4[C@H](COC(C)=O)C[N]5[C@@H](COC(C)=O)C[N]1[Mn]2345([Cl])[Cl]` [Compound 33]: the “kcat pH 7.4” value worked out at 7.27 and the “kcat pH 8.1” value came out at 4.08.

In the case of `CCC(=O)OCC1C[N]2CC[N]3[C@@H](COC(=O)CC)C[N]4[C@@H](COC(=O)CC)C[N]5[C@@H](COC(=O)CC)C[N]1[Mn]2354([Cl])[Cl]` (stereo partly shown) [Compound 34], the “kcat pH 7.4” value was determined as 2.70 and the “kcat pH 8.1” value stood at 2.78.

`C[C@H]1C[N]2[C@@H](C)C[N]3[C@@H](CCCNC(=O)CC(CC(=O)O)NC(=O)CNC(=O)c4cccc(NC(=N)N)c4)C[N]4[C@H]5CCCC[C@H]5[N]5CC[N]1[Mn]3524([Cl])[Cl]` (stereo partly shown) [Compound 35]: the “kcat pH 7.4” value is reported as 4.38 and the “kcat pH 8.1” value is 2.87.

For the molecule `O=C(OC[C@H]1C[N]2[C@@H](COC(=O)c3ccccc3)C[N]3[C@@H](COC(=O)c4ccccc4)C[N]4[C@@H](COC(=O)c5ccccc5)C[N]5CC[N]1[Mn]5423([Cl])[Cl])c1ccccc1` [Compound 36], the “kcat pH 7.4” value is on record as 0.63 and the “kcat pH 8.1” value was 0.49.

Turning to `CC(C)C(=O)OC[C@@H]1C[N]2[C@@H]3CCCC[C@H]3[N]3CC[N]4C5CCCCC5[N]5CC[N]1[Mn]5432([Cl])[Cl]` (stereo partly shown) [Compound 37], the “kcat pH 7.4” value was 3.08.

For `CCC(=O)OC[C@H]1C[N]2[C@@H]3CCCC[C@H]3[N]3CC[N]4C5CCCCC5[N]5CC[N]1[Mn]5432([Cl])[Cl]` (stereo partly shown) [Compound 39], the “kcat pH 7.4” value was 3.89 and the “kcat pH 8.1” value was determined as 2.32.

“Manganese(II) dichloro(4R,9R,11R,14R,19R)-3,10,13,20,26-pentaaza-(2R,21R)-dimethyltetracyclo[20.3.1.0^4,9, 0^14,19]hexacose-1(25),22(26),23-triene [Compound 40]”: the “kcat pH 7.4” value worked out at 90.00 and the “kcat pH 8.1” value is given as 11.00.

The values above are taken from US7445641B1, “Biomaterials modified with superoxide dismutase mimics” (priority 1999, dated 2008).
